Blank lines part the entries; values can stand above or below the molecule they belong to.
Assays:
purified PARG = experiment: ATP sensitivity of purified PARG (PAR chain length, substrate concentration); assay type: biochemical; details: 45 minutes
Experimental: Poly(ADP-ribose)glycohydrolase (PARG) is purchased from Biomol or Alexis Co, which enzymes are equal in performance. Jurkat cells are cultured as reported (Buday et al. (1996) J Biol Chem 271:6159-6163) and nuclei are prepared by a published method (Smirnova et al. (2000) J Biol Chem 275:9377-9384). Enzymatic assays for PARP-1 are performed as published (deMurcia (2000) From DNA-damage and Stress Signalling to Cell Death: Poly ADP-ribosylation Reactions). PARG activity is analyzed with polyADP-ribosylated PARP-1 as substrate, containing long chains synthesized with spermine as cofactor (Kun et al. (2004) Biochemistry 43:210-216), or short chains where the cofactor is histone H1. The polyADP-ribose is labeled either with 3H or by biotinylated-NAD. PARG activity is quantitatively measured either by assaying the liberated 3H-ADP-ribose by TLC (Kirsten et al. (1991) Exp Cell Res 194:1-8) (chromatography carried out on PEI-cellulose sheets with 0.9 M acetic acid and 0.3 M LiCl as solvent) or by immunoassay of the remaining biotinylated (ADP-ribose)n (Bakondi et al. (2004) Exp Dermatol 13:170-178). All other reagents are of highest analytical purity. Short (Δ-Δ)- or long ([…]-[…])-chain PAR-PARP molecules are prepared as described in the methods and attached to the surface of assay wells. Purified PARG (15 mU/assay) is added to the wells in the presence of various concentrations of ATP and incubated for 45 minutes. The attached amount of polymers is determined in triplicate experiments (zero minute values for short chains were 0.5 OD, and 1.8 OD for long chain polymers). PARG (15 mU/assay) is incubated with various concentrations of 32P-PAR (long chain polymer) in the presence or absence of 6 mM of ATP for 45 minutes and the amount of liberated 32P-ADP-ribose is determined by TLC and liquid scintillation of the cut out portions of the plate located by autoradiography. Experiments are performed in triplicate.

[1] = target: T1, PARP-1 arginine-138 mutant (isoleucine, Zn2+ finger 2) (Homo sapiens, UniProt P09874, R138I); experiment: Enzymatic activity of arginine-138 (R138I) mutant PARP-1 with ATP; assay type: biochemical; details: arginine-138 mutated to isoleucine in Zn2+ finger 2; FIG. 1
T1 construct: made in house; host or cells: Sf9 (baculovirus)
Excerpt: (§1) PARP-1 is purified from calf thymus as reported earlier (Molinet et al. (1993) EMBO J. 12:2109-2117). Alternatively recombinant PARP-1 is isolated from Sodoptera Fugiperda (Sf9) cells infected with recombinant baculovirus, expressing the human PARP-1 gene, constructed according to the instructions of Pharmingen. The cDNA of the amino acid exchange mutant R34G and R138 il of PARP-1 is created by the mega primer method (Kannann et al. (1989) Nucl Acids Res 17:5404). The mutated gene is cloned into the transfer vector pV 1392 and the recombinant virus is generated by the Baculogold technology of Pharmigen. The mutated proteins are expressed in Sf9 cells, purified and assayed as reported (Huang et al. (2004) Biochemistry 43:217-223; Kirsten et al. (2004) Methods in Molecular Biology 287, Epigenetics Protocols 137-149).
(§2) Assays are carried out as described (Kun et al. (2004) Biochemistry, 43:210-216) in triplicate (200 μM 3H labeled NAD+, 28 dpm/pmol, 0.5 pmol PARP-1, 3 mM spermine, pH 7.3 t=7.5 min). Identical results are obtained when ATP is replaced by its non-hydrolysable analog (Kun et al. (2004) Biochemistry, 43:210-216).

[2] = target: T2, PARP-1 activity of Jurkat cell nuclei (Homo sapiens, UniProt P09874); experiment: Effect of ATP on the PARP-1 activity of Jurkat cell nuclei; assay type: biochemical; details: 1 mM ATP; isolated Jurkat cell nuclei; FIG. 2
T2 construct: endogenous in cells; host or cells: Jurkat cell nuclei
Experimental: Poly(ADP-ribose)glycohydrolase (PARG) is purchased from Biomol or Alexis Co, which enzymes are equal in performance. Jurkat cells are cultured as reported (Buday et al. (1996) J Biol Chem 271:6159-6163) and nuclei are prepared by a published method (Smirnova et al. (2000) J Biol Chem 275:9377-9384). Enzymatic assays for PARP-1 are performed as published (deMurcia (2000) From DNA-damage and Stress Signalling to Cell Death: Poly ADP-ribosylation Reactions). PARG activity is analyzed with polyADP-ribosylated PARP-1 as substrate, containing long chains synthesized with spermine as cofactor (Kun et al. (2004) Biochemistry 43:210-216), or short chains where the cofactor is histone H1. The polyADP-ribose is labeled either with 3H or by biotinylated-NAD. PARG activity is quantitatively measured either by assaying the liberated 3H-ADP-ribose by TLC (Kirsten et al. (1991) Exp Cell Res 194:1-8) (chromatography carried out on PEI-cellulose sheets with 0.9 M acetic acid and 0.3 M LiCl as solvent) or by immunoassay of the remaining biotinylated (ADP-ribose)n (Bakondi et al. (2004) Exp Dermatol 13:170-178). All other reagents are of highest analytical purity. […] After separating the proteins on a 8% SDS-PAGE gel, the nitrocellulose-blotted, labeled proteins are detected by incubating with streptavidine-HPO complex (1 μg/ml) and by fluorography. Triplicate results are expressed as densitometric units.

[3] = target: T3, PARP-1 arginine-34 mutant (R34G, Zn2+ finger 1) (Homo sapiens, UniProt P09874, R34G); experiment: Enzymatic activity of arginine-34 (R34G) mutant PARP-1 with ATP; assay type: biochemical; details: arginine-34 replaced by glycine in Zn2+ finger 1; 200 μM NAD+, 3 mM spermine, pH 7.3; FIG. 1
T3 construct: made in house; host or cells: Sf9 (baculovirus)
Excerpt: as §1, §2

[4] = target: T4, PARG activity of Jurkat cell nuclear extract (Homo sapiens, UniProt Q86W56); experiment: Effect of ATP on the glycohydrolase activity of Jurkat cell nuclear extract; assay type: biochemical; details: 8 mM ATP; polyADP-ribosylated PARP-1 with long polymers (50 ADP-ribose units); FIG. 4
T4 construct: endogenous in cells; host or cells: Jurkat cell nuclear extract
Experimental: Poly(ADP-ribose)glycohydrolase (PARG) is purchased from Biomol or Alexis Co, which enzymes are equal in performance. Jurkat cells are cultured as reported (Buday et al. (1996) J Biol Chem 271:6159-6163) and nuclei are prepared by a published method (Smirnova et al. (2000) J Biol Chem 275:9377-9384). Enzymatic assays for PARP-1 are performed as published (deMurcia (2000) From DNA-damage and Stress Signalling to Cell Death: Poly ADP-ribosylation Reactions). PARG activity is analyzed with polyADP-ribosylated PARP-1 as substrate, containing long chains synthesized with spermine as cofactor (Kun et al. (2004) Biochemistry 43:210-216), or short chains where the cofactor is histone H1. The polyADP-ribose is labeled either with 3H or by biotinylated-NAD. PARG activity is quantitatively measured either by assaying the liberated 3H-ADP-ribose by TLC (Kirsten et al. (1991) Exp Cell Res 194:1-8) (chromatography carried out on PEI-cellulose sheets with 0.9 M acetic acid and 0.3 M LiCl as solvent) or by immunoassay of the remaining biotinylated (ADP-ribose)n (Bakondi et al. (2004) Exp Dermatol 13:170-178). All other reagents are of highest analytical purity. Poly(ADP-ribosylated)-PARP-1 (2 μg protein is incubated with 50 μM of biotinylated-NAD as described above) and is attached to the walls of 96-well plates. ([…] et al. (1989) Nucl. Acids Res. 17:5404). […]

[5] = target: T2, PARP-1 activity of Jurkat cell nuclei; experiment: Effect of BCNU on the ATP sensitivity of PARP-1 activity of Jurkat cell nuclei; assay type: biochemical; details: nuclei pre-incubated with 400 nM BCNU for 30 minutes; FIG. 3
Experimental: Nuclei equivalent to 2×10^5 Jurkat cells are pre incubated in the presence of various concentrations of ATP. Then PARP activities are assayed by admixing biotinylated-NAD (5 μM final conc.) and incubating for ten minutes. After separating the proteins on a 8% SDS-PAGE gel, the nitrocellulose-blotted, labeled proteins are detected by incubating with streptavidine-HPO complex (1 μg/ml) and by fluorography. Triplicate results are expressed as densitometric units. Experiments in triplicate are carried out as described in FIG. 2, with the exception that pre incubation is done with 400 nM of BCNU for 30 minutes.

solid tumor colon cancer = experiment: Treatment of a subject suffering from solid tumor colon cancer; assay type: in vivo; details: orally or parenterally; after few days
Experimental: A subject suffering from solid tumor colon cancer is treated with a therapeutically effective amount of compound of formula
(§3) where the compound is administered orally or parenterally.

inflammation = experiment: Treatment of a subject suffering from inflammation; assay type: in vivo; details: orally or parenterally; after few days
Experimental: A subject suffering from inflammation is treated with a therapeutically effective amount of compound of formula
as §3

CNS disease = experiment: Treatment of a subject suffering from CNS disease; assay type: in vivo; details: orally or parenterally; after few days
Experimental: A subject suffering from CNS disease is treated with a therapeutically effective amount of compound of formula
as §3

T2 sequence (P09874 whole entry): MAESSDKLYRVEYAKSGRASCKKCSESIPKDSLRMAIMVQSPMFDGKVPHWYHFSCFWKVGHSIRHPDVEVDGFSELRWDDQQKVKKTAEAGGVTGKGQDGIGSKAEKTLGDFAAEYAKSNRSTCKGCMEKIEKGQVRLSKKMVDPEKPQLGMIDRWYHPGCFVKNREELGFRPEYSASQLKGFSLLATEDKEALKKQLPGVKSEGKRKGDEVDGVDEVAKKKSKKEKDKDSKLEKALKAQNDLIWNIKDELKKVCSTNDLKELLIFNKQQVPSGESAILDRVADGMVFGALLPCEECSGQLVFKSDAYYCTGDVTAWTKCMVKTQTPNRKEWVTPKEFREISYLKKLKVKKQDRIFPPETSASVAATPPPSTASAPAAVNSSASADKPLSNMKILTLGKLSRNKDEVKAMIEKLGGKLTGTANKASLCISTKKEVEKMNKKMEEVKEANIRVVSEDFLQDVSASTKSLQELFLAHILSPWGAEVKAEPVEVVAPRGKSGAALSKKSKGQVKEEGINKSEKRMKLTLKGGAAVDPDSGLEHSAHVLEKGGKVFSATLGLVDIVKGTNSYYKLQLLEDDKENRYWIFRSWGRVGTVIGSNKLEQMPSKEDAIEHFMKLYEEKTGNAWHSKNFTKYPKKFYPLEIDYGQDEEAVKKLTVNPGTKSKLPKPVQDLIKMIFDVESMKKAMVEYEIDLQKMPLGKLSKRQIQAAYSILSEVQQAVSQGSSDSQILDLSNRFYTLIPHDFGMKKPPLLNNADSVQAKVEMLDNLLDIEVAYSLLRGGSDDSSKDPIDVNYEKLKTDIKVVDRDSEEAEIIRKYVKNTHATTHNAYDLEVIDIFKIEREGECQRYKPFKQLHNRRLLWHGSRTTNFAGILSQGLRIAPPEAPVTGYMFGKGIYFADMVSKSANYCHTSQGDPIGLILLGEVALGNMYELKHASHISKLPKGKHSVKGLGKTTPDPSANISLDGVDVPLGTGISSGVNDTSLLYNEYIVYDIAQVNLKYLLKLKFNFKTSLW
T1 sequence (P09874 whole entry R138I): as the sequence (P09874 whole entry) above, with R138I counted along it
T3 sequence (P09874 whole entry R34G): as the sequence (P09874 whole entry) above, with R34G counted along it
T4 sequence (Q86W56 whole entry): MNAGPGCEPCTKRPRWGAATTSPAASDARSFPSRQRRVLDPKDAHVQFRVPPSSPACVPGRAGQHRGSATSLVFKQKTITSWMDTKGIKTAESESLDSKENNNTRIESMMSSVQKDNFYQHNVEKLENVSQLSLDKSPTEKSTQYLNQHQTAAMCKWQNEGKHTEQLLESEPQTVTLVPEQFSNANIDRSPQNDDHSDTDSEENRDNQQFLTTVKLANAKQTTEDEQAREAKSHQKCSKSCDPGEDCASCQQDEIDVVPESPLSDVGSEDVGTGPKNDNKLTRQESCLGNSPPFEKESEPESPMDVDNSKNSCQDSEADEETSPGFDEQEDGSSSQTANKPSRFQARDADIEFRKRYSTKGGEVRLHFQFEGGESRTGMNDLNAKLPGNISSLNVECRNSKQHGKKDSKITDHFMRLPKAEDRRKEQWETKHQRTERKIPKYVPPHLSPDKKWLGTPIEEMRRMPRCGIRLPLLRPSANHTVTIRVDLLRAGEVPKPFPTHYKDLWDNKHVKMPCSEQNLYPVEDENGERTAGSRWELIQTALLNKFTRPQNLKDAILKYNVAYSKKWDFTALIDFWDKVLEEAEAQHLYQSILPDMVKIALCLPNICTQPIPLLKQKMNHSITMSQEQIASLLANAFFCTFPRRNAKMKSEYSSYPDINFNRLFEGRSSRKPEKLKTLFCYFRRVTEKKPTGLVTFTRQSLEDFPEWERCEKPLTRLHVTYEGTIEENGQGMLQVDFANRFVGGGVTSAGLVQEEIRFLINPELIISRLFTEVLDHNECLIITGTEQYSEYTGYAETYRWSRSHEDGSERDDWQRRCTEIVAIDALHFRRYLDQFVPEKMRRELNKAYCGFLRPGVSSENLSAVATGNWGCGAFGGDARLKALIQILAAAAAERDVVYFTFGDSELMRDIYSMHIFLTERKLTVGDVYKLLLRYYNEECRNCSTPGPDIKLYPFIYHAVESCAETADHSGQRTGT

- exonucleotidase activity of PARG (liberation of ADP-ribose) (purified PARG; 6 mM ATP, long chain polymers as substrate, FIG. 6): activation
- effect of the mutation on the inhibitory action of ATP on PARP-1 [1]: negligible effect
- inhibition of PARP-1 activity in nuclei [2]: 80%
- inhibitory action of ATP on PARP-1 enzymatic activity [3]: abolished
- effect on PARG activity (decay of long PAR polymer) [4]: significantly accelerates
SMILES: Nc1ncnc2c1ncn2[C@@H]1O[C@H](COP(=O)(O)OP(=O)(O)OP(=O)(O)O)[C@@H](O)[C@H]1O [ATP]
- acceleration of decay of longer ADP-ribose oligomers by PARG (purified PARG; long-chain PAR (average chain length 50 ADPR), PARG 15 mU/assay, FIG. 5): accelerated
- acceleration of degradation of short ADP-ribose oligomers by PARG (purified PARG; short-chain PAR, PARG 15 mU/assay, FIG. 5): not accelerated
- response to DNA damage by BCNU as assayed by PARP-1 activity, with externally added ATP [5]: completely removed

SMILES: O=c1ccc2c(I)c(O)ccc2o1 [drawing 14]
- symptoms of the cancer (solid tumor colon cancer): markedly reduced

SMILES: O=c1ccc2c(I)c(O)ccc2o1 [drawing 20]
- symptoms of inflammation (inflammation): markedly reduced

SMILES: O=c1ccc2c(I)c(O)ccc2o1 [drawing 26]
- symptoms of CNS disease (CNS disease): markedly reduced
